Experiments:
NSC/EC co-spheroids = assay: Morphology and relative size of co-spheroids encapsulated in hydrogels; assay type: cell-based; settings: FGF2 1 μg/mL
Description: To observe the morphological alteration of NSC/EC co-spheroids embedded in the hydrogels, the cells were labeled with fluorescent dyes before seeding on CS-HA substrates. After gelation, the culture medium was added and changed every 2 days. The morphologies of cell spheroids formed on CS/CS-HA substrates and encapsulated in the various hydrogels were observed by a fluorescence microscope (Leica, DMIRB), and the relative sizes of cell spheroids were determined by ImageJ software (National Institutes of Health, USA).
To support the long-term growth of NSC/EC co-spheroids, the co-spheroids derived from the CS-HA substrates were respectively embedded in the CS-based and gelatin-based hydrogels. […] On the other hand, the cell growth rates in the spheroids were evaluated by the spheroid size. Cells in EC mono-spheroids grew faster than those in NSC mono-spheroids, and the growth rate in NSC/EC co-spheroids was the slowest in both hydrogels, though the difference among each group was not statistically significant.
In some embodiments, the fibroblast growth factor 2 (FGF2) protein was used to promote the growth of co-spheroids in hydrogels. In order to evenly add FGF2 to hydrogels, FGF2 (PeproTech, USA) was added to the hydrogel solution and mixed before the gelation. The final concentration of the FGF2 protein in hydrogels was 1 μg/mL. […]

[1] = test system: ECs in NSC/EC co-spheroids; assay: qRT-PCR of EC activity and angiogenic markers in co-spheroids encapsulated in gelatin-based hydrogel; assay type: cell-based; settings: FGF2 1 μg/mL in gelatin-based hydrogel, 3 days
Description: Total RNA from the adherent cells or cell spheroids formed on CS-HA substrates and embedded in the hydrogels was extracted by Trizol reagent (Invitrogen) as the manufacturer's instructions. One microgram of total RNA was further subjected to the cDNA synthesis. cDNA pool was generated by RevertAid First Strand cDNA Synthesis Kit (MBI Fermentas, Canada) using the standard protocol. qRT-PCR was performed by StepOnePlus thermos cycler (Applied Biosystems) using the DyNAmo Flash SYBR Green qPCR Kit (Finnzymes Oy, Finland). […]
To investigate whether EC activity in NSC/EC co-spheroids was promoted after encapsulation in gelatin-based hydrogel, the co-spheroids that were cultured on CS-HA substrates for 2 days were collected, and then encapsulated by gelatin-based hydrogel. After encapsulation for 3 days, the expression of several markers representative of mitogenic and angiogenic activities of ECs was determined.
On the other hand, a relative long-term culture of co-spheroids in the gelatin-based hydrogel containing FGF2 for 12 days was also performed, and the activity of ECs was analyzed by gene expression.
To further verify the angiogenic potential of ECs in the co-spheroids, more angiogenic markers for ECs including angiopoietin-1, angiopoietin-2, and tyrosine kinase 1 (Flt-1) were analyzed.

fibroblast growth factor 2 [FGF2]
growth rates of the co-spheroids after FGF2 induction (NSC/EC co-spheroids; in CS-based hydrogel): not promoted | growth of co-spheroids after introduction of FGF2 (NSC/EC co-spheroids; in gelatin-based hydrogel, from 6 days after encapsulation): lightly enhanced | expression of KDR, VEGF, ITGb1, VE-cadherin upon addition of FGF2 [1]: did not seem to be apparently affected
